In patent US20230270804A1, “ANTI-HYPERCHOLESTEROLEMIA COMPOSITION AND A METHOD OF MANUFACTURING THE SAME” (NBI BIOSCIENCES PRIVATE LIMITED, priority 2020, published 2023):

Legend:
HMG CoA Reductase = molecular target: T1, HMG CoA Reductase (Rattus norvegicus, UniProt P51639); assay: Therapeutic study: HMG CoA reductase activity in liver homogenate; format: in vivo, Wistar strain albino rats; details: after necropsy
T1 construct: The tissue homogenate was prepared by homogenizing 1 gm of tissue (liver) with 10 ml of saline arsenate solution; from tissue; host or cells: rat liver homogenate
T1 sequence (P51639 1-887): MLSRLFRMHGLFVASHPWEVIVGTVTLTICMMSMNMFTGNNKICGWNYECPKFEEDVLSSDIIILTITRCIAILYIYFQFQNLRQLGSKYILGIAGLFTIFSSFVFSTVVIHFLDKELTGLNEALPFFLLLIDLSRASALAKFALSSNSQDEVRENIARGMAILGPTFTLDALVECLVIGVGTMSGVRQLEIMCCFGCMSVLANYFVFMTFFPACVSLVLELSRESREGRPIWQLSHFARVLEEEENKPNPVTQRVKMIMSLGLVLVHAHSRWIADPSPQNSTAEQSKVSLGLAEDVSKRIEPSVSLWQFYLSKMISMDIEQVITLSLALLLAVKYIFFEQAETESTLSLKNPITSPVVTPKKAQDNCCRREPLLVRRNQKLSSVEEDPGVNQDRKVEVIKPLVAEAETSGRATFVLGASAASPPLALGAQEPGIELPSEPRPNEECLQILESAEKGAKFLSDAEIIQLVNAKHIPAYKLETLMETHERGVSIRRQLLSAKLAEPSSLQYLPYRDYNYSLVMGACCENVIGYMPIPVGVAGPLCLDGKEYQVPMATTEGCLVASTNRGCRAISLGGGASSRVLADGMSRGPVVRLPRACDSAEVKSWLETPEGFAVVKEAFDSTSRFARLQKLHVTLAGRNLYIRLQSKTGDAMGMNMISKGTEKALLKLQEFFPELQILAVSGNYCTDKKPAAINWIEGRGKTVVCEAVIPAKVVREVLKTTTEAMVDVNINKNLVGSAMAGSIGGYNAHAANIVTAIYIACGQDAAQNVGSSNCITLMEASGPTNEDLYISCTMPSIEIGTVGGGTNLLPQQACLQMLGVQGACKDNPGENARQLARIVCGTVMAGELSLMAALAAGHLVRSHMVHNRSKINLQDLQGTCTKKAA
Procedure: 1.5-2 ml blood sample was taken from retino-orbital chamber in vials for biochemical estimations at every 15 days. Investigations performed included detailed Total Cholesterol—TC (mg/dl), Triglyceride—TG (mg/dl), High Density Lipoprotein—HDL-C (mg/dl), Low Density Lipoprotein—LDL-C (mg/dl), Very Low-Density Lipoprotein—VLDL (mg/dl), WBC (10^3/u1), RBC (10^6/u1), Hb (g/dl), PCV (%), Reticulocyte (%), Platelet count 10^5/mm^3, Clotting time (Sec), Neutrophils, Lymphocyte, Monocyte and Eosinophil. The estimations were done with Ecoline kits from Erba Mannheim, ERBA diagnostics Mannheml, Germany using Semi Autoanalyzer RX50 of MicroLabs Instruments and COUNCELL21 of Tulip Diagnostics Pvt. Ltd. Lipid peroxidation (Plasma & Liver), HMG Co-Reductase, Creatine phosphokinase (CPK), Lactate dehydrogenase (LDH), SGOT and SGPT were estimated at the end of both the studies using the kits.
The tissue homogenate was prepared by homogenizing 1 gm of tissue (liver) with 10 ml of saline arsenate solution. Further equal volumes of the fresh 10% tissue homogenate and diluted perchloric acid were mixed and allowed to stand for 5 minute and centrifuge (2000 rpm, 10 minutes). […] The readings were taken after 10 minutes at 540 nm vs. a similarly treated saline/arsenate blank.

[1] = Prophylactic study: hematological parameters; format: in vivo, Wistar strain albino rats; details: HFD+normal diet, day 0

CC(C)c1c(C(=O)Nc2ccccc2)c(-c2ccccc2)c(-c2ccc(F)cc2)n1CC[C@@H](O)C[C@@H](O)CC(=O)O [Statin, Atorvastatin]
HMG Co Reductase (HMG CoA Reductase; HFD Continued): 224.83 ± 18.48 U/mg | HMG Co Reductase (HMG CoA Reductase; HFD Discontinued): 170.03 ± 2.71 U/mg | Platelet count [1]: 1040 ± 15.2 10³/µL
